Columns and labels:
Assay in all cases: relative viability (nuclei count vs DMSO), 5 days (fraction); higher = more cells survive
Carfilzomib + Navitoclax = compound: CC(C)C[C@H](NC(=O)[C@H](CCc1ccccc1)NC(=O)CN1CCOCC1)C(=O)N[C@@H](Cc1ccccc1)C(=O)N[C@@H](CC(C)C)C(=O)[C@@]1(C)CO1 [Carfilzomib] + CC1(C)CCC(c2ccc(Cl)cc2)=C(CN2CCN(c3ccc(C(=O)NS(=O)(=O)c4ccc(N[C@H](CCN5CCOCC5)CSc5ccccc5)c(S(=O)(=O)C(F)(F)F)c4)cc3)CC2)C1 [Navitoclax] (partner 0.5 µM)
Summary of the method: (§1)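 Lung cancer cell lines were pin-tool dosed in 1536-well plates on the day after seeding, with either a lone drug or a fixed anchor-drug dose plus five library-drug doses (not always all listed) in √10 steps. Nuclei were counted on 4× images after 5 days. Relative viability is the ratio of treated-well to vehicle-well nuclei counts, with each value a median of duplicate plates.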

Carfilzomib + Decitabine = compound: CC(C)C[C@H](NC(=O)[C@H](CCc1ccccc1)NC(=O)CN1CCOCC1)C(=O)N[C@@H](Cc1ccccc1)C(=O)N[C@@H](CC(C)C)C(=O)[C@@]1(C)CO1 [Carfilzomib] + Nc1ncn([C@H]2C[C@H](O)[C@@H](CO)O2)c(=O)n1 [Decitabine] (partner 2 µM)
Summary of the method: as §1

Crizotinib + Lapatinib = compound: C[C@@H](Oc1cc(-c2cnn(C3CCNCC3)c2)cnc1N)c1c(Cl)ccc(F)c1Cl [Crizotinib] + CS(=O)(=O)CCNCc1ccc(-c2ccc3ncnc(Nc4ccc(OCc5cccc(F)c5)c(Cl)c4)c3c2)o1 [Lapatinib] (partner 2 µM)
Summary of the method: as §1

Olaparib + Navitoclax = compound: O=C(c1cc(Cc2n[nH]c(=O)c3ccccc23)ccc1F)N1CCN(C(=O)C2CC2)CC1 [Olaparib] + CC1(C)CCC(c2ccc(Cl)cc2)=C(CN2CCN(c3ccc(C(=O)NS(=O)(=O)c4ccc(N[C@H](CCN5CCOCC5)CSc5ccccc5)c(S(=O)(=O)C(F)(F)F)c4)cc3)CC2)C1 [Navitoclax] (partner 0.5 µM)
Summary of the method: as §1

Cell Line	relative viability (Carfilzomib + Navitoclax; first compound 0.001 µM)	relative viability (Carfilzomib + Navitoclax; first compound 0.003162 µM)	relative viability (Carfilzomib + Navitoclax; first compound 0.01 µM)	relative viability (Carfilzomib + Navitoclax; first compound 0.03162 µM)	relative viability (Carfilzomib + Navitoclax; first compound 0.1 µM)	relative viability (Carfilzomib + Decitabine; first compound 0.001 µM)	relative viability (Carfilzomib + Decitabine; first compound 0.003162 µM)	relative viability (Carfilzomib + Decitabine; first compound 0.01 µM)	relative viability (Carfilzomib + Decitabine; first compound 0.03162 µM)	relative viability (Carfilzomib + Decitabine; first compound 0.1 µM)	relative viability (Crizotinib + Lapatinib; first compound 0.01 µM)	relative viability (Crizotinib + Lapatinib; first compound 0.03162 µM)	relative viability (Crizotinib + Lapatinib; first compound 0.1 µM)	relative viability (Crizotinib + Lapatinib; first compound 0.3162 µM)	relative viability (Crizotinib + Lapatinib; first compound 1 µM)	relative viability (Olaparib + Navitoclax; first compound 0.08 µM)	relative viability (Olaparib + Navitoclax; first compound 0.253 µM)	relative viability (Olaparib + Navitoclax; first compound 2.53 µM)	relative viability (Olaparib + Navitoclax; first compound 8 µM)
NCI-H596	0.906	1.04	1.14	0.353	0.153	0.904	0.999	1.03	1.16	0.308	1.02	1.12	1.02	1.02	1.24	0.899	0.902	0.878	0.519
NCI-H2347	0.698	0.931	0.733	0.512	0.235	0.625	0.608	0.66	0.594	0.389	0.982	0.902	0.906	0.888	0.933	0.9	0.779	0.692	0.562
HCC-78	0.546	0.925	0.748	0.503	0.179	0.622	0.766	0.672	0.554	0.302	0.77	0.828	0.697	0.261	1.26	0.977	0.738	0.819	0.572
NCI-H1650		1.09	1.24	0.1	0.119	0.42	0.522	0.359	0.148	0.177	0.699	0.819	0.828	0.363	0.799	1.7	1.1	1.24	1.11
COR-L23	1.1	1.14	0.724	0.0667	0.0704	0.383	0.443	0.386	0.0979	0.0901	0.835	1.1	0.983	0.985	0.985	1.12	0.877	0.713	0.44
NCI-H322M	1.36	1.29	1.01	1.22	0.559	0.621	0.756	0.615	0.718	0.505	0.478	0.642	0.616	0.584	0.701	1.34	1.07	1.23	1.01
NCI-H2085	1.08	1.23	1.02	0.436	0.242	0.589	0.608	0.584	0.421	0.297	0.724	0.899	0.785	0.709	0.715	1.25	1.03	1.12	0.929
NCI-H2023	1	0.967	1.02	0.907	0.0939	0.184	0.23	0.173	0.203	0.0666	0.864	0.884	0.71	0.372	0.465	1.05	0.973	0.959	0.787
LU99A	0.738	0.898	0.793	0.581	0.183	0.952	1.13	0.961	0.821	0.317	0.824	1.02	0.976	1.03	0.928	0.775	0.635	0.547	0.289
NCI-H1395	0.964	1.24	0.995	0.481	0.347		0.756	0.602	0.441	0.319	0.971	1.14	1	0.922	0.956	1.27	0.937	0.776	0.573
HCC-15	0.667	0.728	0.762	0.423	0.148	0.606	0.725	0.637	0.424	0.127	0.831	0.881	0.886	0.549	0.836	0.751	0.657	0.719	0.643
RERF-LC-KJ	0.972	1.13	0.608	0.218	0.252	0.744	0.721	0.807	0.422	0.207	0.801	0.881	0.853		0.838	1.04	0.862	0.998	1.09
NCI-H647		1.33	0.841	0.087	0.0294	0.365	0.321	0.274	0.049	0.0498		1.1	1.23	0.792	1.07	1.44	1.1	1.06	0.745
201T	1.14	1.23	1.22	1.23	1.18	0.818	0.901	0.798	0.873	0.795	0.891		1.03	1.05	1.06	1.18	1.2	1.19	1.15
HCC-366	1.02	0.98	0.956	1.03	0.0374	0.32	0.412	0.352	0.447	0.086	1	1.06	1.05		1.11	1.08	0.985	0.827	0.492
HOP-62	1.1	1.11	0.887	0.167	0.107	0.25	0.207	0.249	0.182	0.0817	0.796	1.15	1.01	0.84	1	1.22	0.929	1.06	0.823
NCI-H1734	0.831	1.05	0.803	0.584	0.0981	0.482	0.517	0.48	0.474	0.136	1.03	1.05	1		1.04	0.854	0.709	0.765	0.531

— the supplement of paper PMC10307832
